One test has as its target T1, recombinant human c-Kit (Homo sapiens, UniProt P10721).
T1 construct: purchased Signalchem
Nature of the test: c-Kit Kinase Assay (ADP-Glo). Conditions: In vitro kinase activity. In kind it is biochemical. The procedure:
ADP-Glo assay kit was purchased from Promega. Magnesium chloride (MgCl2), ethylene glycol-bis([…] ether)-N,N,N′,N′-tetraacetic acid (EGTA), manganese (II) chloride (MnCl2), bovine serum albumin (BSA), 1,4-dithiothreitol (DTT) and dimethyl sulfoxide (DMSO) were purchased from Sigma-Aldrich. HEPES buffer was purchased from Gibco. c-Kit kinase and poly (4:1 Glu, Tyr) peptide were purchased from Signalchem.
(§1) c-Kit kinase activity was measured by Promega's ADP-Glo™ Assay. In this assay, 100ng of recombinant human c-Kit is incubated with 5 μL of compounds (0.5% DMSO), 5 μL of Poly (4:1 Glu, Tyr) peptide (50 ng/μl) and 5 μL of ATP (50 μM) in buffer (50 mM HEPES, pH7.5; 10 mM MgCl2; 1 mM EGTA; 0.05% BSA; 50μM DTT; 2mM MnCl2). The assay was started by incubating the reaction mixture in a 96-well plate at 30° C. for 120-min. After the incubation, 25 μL ADP-Glo reagent was added and the reaction was incubated at room temperature for 40-min to stop the reaction and degrade residual ATP. The ADP product was then converted to ATP by adding 50 μL per well of detection reagent. Luminescence was detected after 30-min room temperature incubation with the Molecular device I3X plate reader. The IC50 values were calculated from a series of percent inhibition values determined at a range of inhibitor concentration using software routines as implemented in the GraphPad Prism 8 software and Sigma Plot 13.0.
(In general: ADP-Glo first removes unused ATP, then detects ADP through luciferase.)

Test [1] addresses T2, recombinant human c-Kit (D816V) (Homo sapiens, UniProt P10721, D816V).
T2 construct: purchased Signalchem
Nature of the test: c-Kit (D816V) Kinase Assay (ADP-Glo). In kind it is biochemical. Particulars: In vitro kinase activity. As to the method:
ADP-Glo assay kit was purchased from Promega. Magnesium chloride (MgCl2), ethylene glycol-bis(β-aminoethyl ether)-N,N,N′,N′-tetraacetic acid (EGTA), bovine serum albumin (BSA), 1,4-dithiothreitol (DTT) and dimethyl sulfoxide (DMSO) were purchased from Sigma-Aldrich. HEPES buffer was purchased from Gibco. c-Kit (D816V) kinase and poly (4:1 Glu, Tyr) peptide were purchased from Signalchem.
as §1, with “c-Kit (D816V)” for “c-Kit”, “Promega's ADP-GIoTM” for “Promega's ADP-Glo™”, “assay, 2.5ng” for “assay, 100ng”, “ATP (15” for “ATP (50”, “BSA; 50 μM DTT).” for “BSA; 50μM DTT; 2mM MnCl2).”

The next test concerns the target T3, recombinant human PDGFRα (Homo sapiens, UniProt P16234).
T3 construct: purchased Signalchem
Nature of the test: PDGFRα Kinase Assay (ADP-Glo). The format is biochemical. Particulars: In vitro kinase activity, read-out: PDGFRa IC50. The procedure: ADP-Glo assay kit was purchased from Promega. Magnesium chloride (MgCl2), ethylene glycol-bis(p-aminoethyl ether)-N,N,N′,N′-tetraacetic acid (EGTA), bovine serum albumin (BSA), 1,4-dithiothreitol (DTT) and dimethyl sulfoxide (DMSO) were purchased from Sigma-Aldrich. HEPES buffer was purchased from Gibco. PDGFRα Kinase and poly (4:1 Glu, Tyr) peptide were purchased from Signalchem.
(§2) PDGFRα kinase activity was measured by Promega's ADP-Glo™ Assay. In this assay, 40ng of recombinant human PDGFRα is incubated with 5 μL of compounds (0.5% DMSO), 5 μL of Poly (4:1 Glu, Tyr) peptide (100 ng/μl) and 5 μL of ATP (25 pM) in buffer (50 mM HEPES, pH7.5; 10 mM MgCl2; 1 mM EGTA; 0.05% BSA; 50 μM DTT). The assay was started by incubating the reaction mixture in a 96-well plate at 30° C. for 60-min. After the incubation, 25 μL ADP-Glo reagent was added and the reaction was incubated at room temperature for 40-min to stop the reaction and degrade residual ATP. The ADP product was then converted to ATP by adding 50 μL per well of detection reagent. Luminescence was detected after 30-min room temperature incubation with the Molecular device I3X plate reader. The IC50 values were calculated from a series of percent inhibition values determined at a range of inhibitor concentration using software routines as implemented in the GraphPad Prism 8 software and Sigma Plot 13.0.

The target of test [2] is T4, recombinant human PDGFRα (D842V) (Homo sapiens, UniProt P16234, D842V).
T4 construct: purchased Signalchem
Nature of the test: PDGFRα (D842V) Kinase Assay (ADP-Glo). The format is biochemical. Particulars: In vitro kinase activity. As to the method:
ADP-Glo assay kit was purchased from Promega. Magnesium chloride (MgCl2), ethylene glycol-bis(p-aminoethyl ether)-N, N, N′, N′-tetraacetic acid (EGTA), bovine serum albumin (BSA), 1,4-dithiothreitol (DTT) and dimethyl sulfoxide (DMSO) were purchased from Sigma-Aldrich. HEPES buffer was purchased from Gibco. PDGFRα (D842V) Kinase and poly (4:1 Glu, Tyr) peptide were purchased from Signalchem.
as §2, with “PDGFRα (D842V)” for “PDGFRα”, “10 ng” for “40ng”, “([…]” for “(25”, “[…]” for “50 μM”, “120-min.” for “60-min.”

For test [3], the system named is K562 human leukemia cell line. The experiment in a line: K562 Cell Proliferation Assay (MTS). In kind it is cell-based. Conditions: K562 cells, 48 hr incubation, MTS cell viability. The procedure:
K562 human leukemia cell line purchased from Korean cell line bank (KCLB) and were cultured in Roswell Park Memorial Institute (RPMI) 1640 Medium supplemented with 10% fetal bovine serum (FBS) and 1% penicillin-streptomycin in a humidified incubator in an atmosphere of 5% CO2 at 37° C. Cells were seeded in 96-well plates at a density of 2×10^3 cells/well in 100 […] media. Compounds were diluted as two times concentration in 100 μl of media and added to each well. Compounds were 5-fold serially diluted for 6 points and treated from 5 μM to 1.6 nM in K562 cells. After 48 hr incubation, Compound treated cells were analyzed for anti-proliferation assay. Cell viability was investigated using the Cell Titer 96 Aqueous One Solution Reagent. Briefly, 200 μl of media were supplemented with 40 μl of MTS solution, incubated for 4hr, and then the absorbance was recorded at 490 nm with a 96-well plate reader. G150 values were calculated from a series of percent of cell viability at a range of compound concentration. GraphPad Prism 8 software or SigmaPlot 13.0 was used to generate G150 values.

T4 sequence (P16234 24-1089 D842V): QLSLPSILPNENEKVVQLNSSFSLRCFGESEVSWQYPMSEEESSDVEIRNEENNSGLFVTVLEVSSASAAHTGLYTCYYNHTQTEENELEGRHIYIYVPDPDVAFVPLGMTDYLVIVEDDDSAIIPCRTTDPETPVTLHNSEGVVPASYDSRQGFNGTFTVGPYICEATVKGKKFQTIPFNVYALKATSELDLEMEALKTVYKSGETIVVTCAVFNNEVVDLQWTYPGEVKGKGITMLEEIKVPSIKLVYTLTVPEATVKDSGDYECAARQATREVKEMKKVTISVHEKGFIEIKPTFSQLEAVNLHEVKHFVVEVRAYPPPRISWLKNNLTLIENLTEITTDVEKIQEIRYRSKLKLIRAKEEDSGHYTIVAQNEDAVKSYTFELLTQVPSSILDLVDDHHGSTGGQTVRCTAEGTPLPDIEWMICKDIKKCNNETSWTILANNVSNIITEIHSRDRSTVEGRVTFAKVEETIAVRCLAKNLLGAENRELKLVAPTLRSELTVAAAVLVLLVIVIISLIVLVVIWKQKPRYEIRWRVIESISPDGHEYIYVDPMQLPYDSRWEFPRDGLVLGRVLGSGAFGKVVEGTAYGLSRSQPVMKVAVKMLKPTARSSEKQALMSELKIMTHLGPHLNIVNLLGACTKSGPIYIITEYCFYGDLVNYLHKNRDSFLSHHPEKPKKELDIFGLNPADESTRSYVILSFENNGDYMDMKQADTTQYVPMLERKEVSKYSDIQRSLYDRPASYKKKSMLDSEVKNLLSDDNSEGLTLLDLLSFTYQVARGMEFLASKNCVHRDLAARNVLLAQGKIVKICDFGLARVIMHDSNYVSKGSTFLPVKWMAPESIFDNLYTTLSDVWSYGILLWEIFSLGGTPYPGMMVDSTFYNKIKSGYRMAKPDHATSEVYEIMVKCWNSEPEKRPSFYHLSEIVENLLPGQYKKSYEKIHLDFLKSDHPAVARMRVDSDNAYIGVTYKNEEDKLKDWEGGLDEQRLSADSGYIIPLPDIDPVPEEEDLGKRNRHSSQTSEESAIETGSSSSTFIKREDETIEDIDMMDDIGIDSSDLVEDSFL
T1 sequence (P10721 26-976): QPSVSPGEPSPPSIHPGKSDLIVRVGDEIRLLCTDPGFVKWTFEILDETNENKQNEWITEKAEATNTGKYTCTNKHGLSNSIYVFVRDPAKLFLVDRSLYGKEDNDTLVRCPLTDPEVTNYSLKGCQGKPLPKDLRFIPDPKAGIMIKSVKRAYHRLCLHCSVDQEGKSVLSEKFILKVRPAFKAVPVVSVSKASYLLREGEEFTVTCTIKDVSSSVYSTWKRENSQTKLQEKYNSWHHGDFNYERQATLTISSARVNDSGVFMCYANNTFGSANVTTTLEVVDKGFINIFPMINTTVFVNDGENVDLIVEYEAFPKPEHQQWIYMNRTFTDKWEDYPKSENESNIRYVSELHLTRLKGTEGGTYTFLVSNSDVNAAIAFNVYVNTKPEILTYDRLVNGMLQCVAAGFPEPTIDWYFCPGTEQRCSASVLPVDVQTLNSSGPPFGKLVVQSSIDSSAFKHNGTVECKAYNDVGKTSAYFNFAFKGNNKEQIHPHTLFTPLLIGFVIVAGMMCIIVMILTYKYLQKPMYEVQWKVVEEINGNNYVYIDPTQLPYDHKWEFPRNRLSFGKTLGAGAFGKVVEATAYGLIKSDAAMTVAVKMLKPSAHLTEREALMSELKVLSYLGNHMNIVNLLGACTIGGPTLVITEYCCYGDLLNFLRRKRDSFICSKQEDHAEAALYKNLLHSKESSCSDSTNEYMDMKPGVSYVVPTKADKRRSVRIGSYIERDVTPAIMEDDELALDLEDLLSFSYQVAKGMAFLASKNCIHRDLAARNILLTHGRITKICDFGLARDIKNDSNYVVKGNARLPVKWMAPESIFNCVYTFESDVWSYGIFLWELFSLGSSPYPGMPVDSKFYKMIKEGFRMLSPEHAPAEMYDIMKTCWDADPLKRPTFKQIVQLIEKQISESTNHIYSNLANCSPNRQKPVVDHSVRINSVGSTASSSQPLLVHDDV
T3 sequence (P16234 24-1089): as the sequence (P16234 24-1089 D842V) above, with V819D counted along it
T2 sequence (P10721 26-976 D816V): as the sequence (P10721 26-976) above, with D791V counted along it

Consider `O=C(Nc1cn2cc(-c3cccc(F)c3CO)ccc2n1)[C@@H]1C[C@@H]1F` [Example 57, (1 S,2 S)-2-fluoro-N-(6-(3-fluoro-2-(hydroxymethyl)phenyl)imidazo[1,2-a]pyridin-2-yl)cyclopropane-1-carboxamide], for which the IC50 (usually the point on the concentration scale where inhibition reaches its midpoint) on recombinant human c-Kit was above 1000 nM; in test [1] it was 101 to 1000 nM; on recombinant human PDGFRα, 101 to 1000 nM; in test [2] it was 10 to 100 nM; in test [3], 101 to 1000 nM.

In the case of `COCc1c(F)cccc1-c1ccc2nc(NC(=O)[C@@H]3C[C@@H]3F)cn2c1` [Example 64, (1 S,2 S)-2-fluoro-N-(6-(3-fluoro-2-(methoxymethyl)phenyl)imidazo[1,2-a]pyridin-2-yl)cyclopropanecarboxamide], the IC50 is above 1000 nM at recombinant human c-Kit, above 1000 nM in test [1], above 1000 nM on recombinant human PDGFRα and 101 to 1000 nM in test [2].

`O=C(Nc1cn2cc(-c3cccc(F)c3-c3ccco3)ccc2n1)[C@@H]1C[C@@H]1F` [Example 65, (1 S,2 S)-2-fluoro-N-(6-(3-fluoro-2-(furan-2-yl)phenyl)imidazo[1,2-a]pyridin-2-yl)cyclopropanecarboxamide]: the IC50 (at recombinant human c-Kit; in test [1]; at recombinant human PDGFRα; in test [2]) was above 1000 nM in each case.

Consider `CC(=O)c1c(F)cccc1-c1ccc2nc(NC(=O)[C@@H]3C[C@@H]3F)cn2c1` [Example 68, (1 S,2 S)-N-(6-(2-acetyl-3-fluorophenyl)imidazo[1,2-a]pyridin-2-yl)-2-fluorocyclopropanecarboxamide], for which the IC50 (on recombinant human c-Kit; in test [1]; at recombinant human PDGFRα; in test [2]) was above 1000 nM each time.

For the molecule `NCc1c(F)cccc1-c1ccc2nc(NC(=O)[C@@H]3C[C@@H]3F)cn2c1` [Example 74, (1 S,2 S)-N-(6-(2-(aminomethyl)-3-fluorophenyl)imidazo[1,2-a]pyridin-2-yl)-2-fluorocyclopropanecarboxamide], the IC50 (at recombinant human c-Kit; in test [1]; at recombinant human PDGFRα; in test [2]) was above 1000 nM each time.

As for `CC(=O)NCc1c(F)cccc1-c1ccc2nc(NC(=O)[C@@H]3C[C@@H]3F)cn2c1` [Example 75, (1 S,2 S)-N-(6-(2-(acetamidomethyl)-3-fluorophenyl)imidazo[1,2-a]pyridin-2-yl)-2-fluorocyclopropanecarboxamide], the IC50 (on recombinant human c-Kit; in test [1]; at recombinant human PDGFRα; in test [2]) was above 1000 nM each time.

Regarding `CNCc1c(F)cccc1-c1ccc2nc(NC(=O)[C@@H]3C[C@@H]3F)cn2c1` [Example 80, (1 S,2 S)-2-fluoro-N-(6-(3-fluoro-2-((methylamino)methyl)phenyl)imidazo[1,2-a]pyridin-2-yl)cyclopropanecarboxamide], the IC50 (on recombinant human c-Kit; in test [1]; on recombinant human PDGFRα; in test [2]) was above 1000 nM each time.

As to `CC(C)NCc1c(F)cccc1-c1ccc2nc(NC(=O)[C@@H]3C[C@@H]3F)cn2c1` [Example 81, (1 S,2 S)-2-fluoro-N-(6-(3-fluoro-2-((isopropylamino)methyl)phenyl)imidazo[1,2-a]pyridin-2-yl)cyclopropanecarboxamide], the IC50 (on recombinant human c-Kit; in test [1]; on recombinant human PDGFRα; in test [2]) was above 1000 nM in each case.

`COCCOCc1c(F)cccc1-c1ccc2nc(NC(=O)[C@@H]3C[C@@H]3F)cn2c1` [Example 82]: the IC50 at recombinant human c-Kit was above 1000 nM; in test [1], above 1000 nM; on recombinant human PDGFRα, 101 to 1000 nM; in test [2], 101 to 1000 nM.

Turning to `O=C(Nc1cn2cc(-c3cccc(F)c3COCCO)ccc2n1)[C@@H]1C[C@@H]1F` [Example 83, (1 S,2 S)-2-fluoro-N-(6-(3-fluoro-2-((2-hydroxyethoxy)methyl)phenyl)imidazo[1,2-a]pyridin-2-yl)cyclopropanecarboxamide], the IC50 at recombinant human c-Kit is above 1000 nM; in test [1] it was above 1000 nM; at recombinant human PDGFRα it was 101 to 1000 nM; in test [2] it was 101 to 1000 nM.

For the molecule `CN(C)Cc1c(F)cccc1-c1ccc2nc(NC(=O)[C@@H]3C[C@@H]3F)cn2c1` [Example 84, (1 S,2 S)-N-(6-(2-((dimethylamino)methyl)-3-fluorophenyl)imidazo[1,2-a]pyridin-2-yl)-2-fluorocyclopropanecarboxamide], the IC50 (on recombinant human c-Kit; in test [1]) was above 1000 nM in each case.

For the origin of these results see patent publication US20220242861A1, “IMIDAZOPYRIDINYL COMPOUNDS AND USE THEREOF FOR TREATMENT OF PROLIFERATIVE DISORDERS” (1ST Biotherapeutics, Inc., priority 2019, published 2022).
